Source: ChEMBL document CHEMBL3286108, “Novel arylsulfonamide derivatives with 5-HT₆/5-HT₇ receptor antagonism targeting behavioral and psychological symptoms of dementia” (J Med Chem, 2014)

Columns and labels:
D(2) dopamine receptor = D(2) dopamine receptor (Homo sapiens, UniProt P14416); test: biochemical
[1] = target: 5-hydroxytryptamine receptor 7 (Homo sapiens, UniProt P34969); test: biochemical; type: cell-based, CHO-K1
[2] = target: 5-hydroxytryptamine receptor 2A (Homo sapiens, UniProt P28223); test: biochemical; type: cell-based, CHO-K1
[3] = target: 5-hydroxytryptamine receptor 6 (Homo sapiens, UniProt P50406); test: biochemical
[4] = target: hERG (KCNH2) potassium channel (Homo sapiens, UniProt Q12809); test: in vitro; settings: CHO cells expressing human cloned ERG
[5] = target: T1, Muscarinic acetylcholine receptor M1 (Homo sapiens) (UniProt P11229); test: Displacement of [3H]pirenzepine from human recombinant M1 receptor expressed in CHO cells at 1 uM; type: cell-based
T1 sequence (whole entry): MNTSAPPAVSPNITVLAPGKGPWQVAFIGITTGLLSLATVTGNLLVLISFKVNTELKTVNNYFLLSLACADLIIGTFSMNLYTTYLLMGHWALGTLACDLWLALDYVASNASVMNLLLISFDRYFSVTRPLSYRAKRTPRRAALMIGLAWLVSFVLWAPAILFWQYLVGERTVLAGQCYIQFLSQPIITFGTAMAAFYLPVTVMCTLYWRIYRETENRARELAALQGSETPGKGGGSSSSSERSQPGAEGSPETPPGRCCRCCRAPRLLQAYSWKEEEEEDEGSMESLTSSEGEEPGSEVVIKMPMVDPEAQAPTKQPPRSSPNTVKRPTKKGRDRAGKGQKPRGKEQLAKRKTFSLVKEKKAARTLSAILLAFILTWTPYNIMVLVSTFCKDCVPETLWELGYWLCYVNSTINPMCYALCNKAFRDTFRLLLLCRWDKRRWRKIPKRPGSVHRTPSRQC

Sequence of hERG (KCNH2) potassium channel (Q12809 whole entry): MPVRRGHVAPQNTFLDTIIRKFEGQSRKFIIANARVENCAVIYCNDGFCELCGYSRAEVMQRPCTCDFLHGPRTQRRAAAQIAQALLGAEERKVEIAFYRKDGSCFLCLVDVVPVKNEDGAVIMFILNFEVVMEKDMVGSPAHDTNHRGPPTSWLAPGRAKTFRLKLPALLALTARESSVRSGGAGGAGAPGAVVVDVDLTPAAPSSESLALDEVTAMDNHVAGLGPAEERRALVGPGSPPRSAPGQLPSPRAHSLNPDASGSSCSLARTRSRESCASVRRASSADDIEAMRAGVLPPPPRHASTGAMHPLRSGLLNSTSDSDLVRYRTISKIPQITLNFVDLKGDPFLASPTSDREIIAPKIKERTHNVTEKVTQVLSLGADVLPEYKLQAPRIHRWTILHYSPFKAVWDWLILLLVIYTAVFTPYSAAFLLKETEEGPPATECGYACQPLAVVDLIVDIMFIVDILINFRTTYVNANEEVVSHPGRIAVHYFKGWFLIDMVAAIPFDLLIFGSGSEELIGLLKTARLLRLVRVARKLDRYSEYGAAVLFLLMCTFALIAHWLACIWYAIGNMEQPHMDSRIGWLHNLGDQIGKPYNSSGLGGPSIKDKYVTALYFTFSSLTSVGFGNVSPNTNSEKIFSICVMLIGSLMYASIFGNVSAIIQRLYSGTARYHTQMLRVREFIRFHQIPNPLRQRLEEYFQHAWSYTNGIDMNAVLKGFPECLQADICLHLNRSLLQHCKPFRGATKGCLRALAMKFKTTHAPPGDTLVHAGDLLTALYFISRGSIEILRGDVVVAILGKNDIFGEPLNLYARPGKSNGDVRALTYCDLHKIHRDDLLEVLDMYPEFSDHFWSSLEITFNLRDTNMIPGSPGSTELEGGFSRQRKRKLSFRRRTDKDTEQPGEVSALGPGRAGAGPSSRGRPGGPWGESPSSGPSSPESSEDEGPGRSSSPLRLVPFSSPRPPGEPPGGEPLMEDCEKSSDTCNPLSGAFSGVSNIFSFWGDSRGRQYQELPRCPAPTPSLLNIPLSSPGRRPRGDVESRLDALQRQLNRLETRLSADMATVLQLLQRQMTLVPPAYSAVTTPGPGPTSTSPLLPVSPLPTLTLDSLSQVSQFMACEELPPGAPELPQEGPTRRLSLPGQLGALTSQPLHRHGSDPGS
Sequence of 5-hydroxytryptamine receptor 6 (P50406 whole entry): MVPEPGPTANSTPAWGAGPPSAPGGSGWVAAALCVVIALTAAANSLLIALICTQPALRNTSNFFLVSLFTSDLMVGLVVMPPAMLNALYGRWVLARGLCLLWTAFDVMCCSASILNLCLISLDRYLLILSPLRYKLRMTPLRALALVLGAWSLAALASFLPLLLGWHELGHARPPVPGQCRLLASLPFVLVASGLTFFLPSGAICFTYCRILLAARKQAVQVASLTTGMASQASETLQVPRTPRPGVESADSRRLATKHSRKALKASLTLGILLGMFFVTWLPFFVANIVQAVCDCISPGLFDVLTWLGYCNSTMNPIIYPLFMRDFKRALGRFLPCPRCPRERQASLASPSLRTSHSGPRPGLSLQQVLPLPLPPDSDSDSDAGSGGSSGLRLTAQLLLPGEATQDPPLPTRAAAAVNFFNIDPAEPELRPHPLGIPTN
Sequence of 5-hydroxytryptamine receptor 2A (P28223 whole entry): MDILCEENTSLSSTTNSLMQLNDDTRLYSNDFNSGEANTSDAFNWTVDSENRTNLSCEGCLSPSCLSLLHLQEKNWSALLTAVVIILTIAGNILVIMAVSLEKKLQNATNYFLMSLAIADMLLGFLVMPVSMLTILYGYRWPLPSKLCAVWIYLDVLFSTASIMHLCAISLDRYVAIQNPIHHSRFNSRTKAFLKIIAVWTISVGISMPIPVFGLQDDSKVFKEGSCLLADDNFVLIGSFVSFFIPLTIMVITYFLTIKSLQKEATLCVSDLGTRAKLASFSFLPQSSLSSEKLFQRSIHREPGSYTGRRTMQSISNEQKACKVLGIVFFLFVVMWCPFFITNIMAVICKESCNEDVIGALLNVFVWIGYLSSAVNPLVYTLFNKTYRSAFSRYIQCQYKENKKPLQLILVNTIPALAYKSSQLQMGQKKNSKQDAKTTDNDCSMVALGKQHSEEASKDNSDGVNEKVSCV
Sequence of D(2) dopamine receptor (P14416 whole entry): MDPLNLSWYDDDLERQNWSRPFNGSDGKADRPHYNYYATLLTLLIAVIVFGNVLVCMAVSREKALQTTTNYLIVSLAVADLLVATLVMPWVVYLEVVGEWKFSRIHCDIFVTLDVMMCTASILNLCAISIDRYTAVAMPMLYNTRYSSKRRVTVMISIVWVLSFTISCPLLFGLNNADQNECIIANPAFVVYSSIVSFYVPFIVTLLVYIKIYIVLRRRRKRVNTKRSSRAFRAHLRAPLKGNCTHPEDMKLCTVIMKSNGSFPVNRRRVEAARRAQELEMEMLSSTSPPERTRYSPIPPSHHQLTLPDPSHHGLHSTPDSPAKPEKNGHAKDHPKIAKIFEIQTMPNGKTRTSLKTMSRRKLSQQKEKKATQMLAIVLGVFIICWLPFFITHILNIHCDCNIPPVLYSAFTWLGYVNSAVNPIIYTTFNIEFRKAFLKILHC
Sequence of 5-hydroxytryptamine receptor 7 (P34969 whole entry): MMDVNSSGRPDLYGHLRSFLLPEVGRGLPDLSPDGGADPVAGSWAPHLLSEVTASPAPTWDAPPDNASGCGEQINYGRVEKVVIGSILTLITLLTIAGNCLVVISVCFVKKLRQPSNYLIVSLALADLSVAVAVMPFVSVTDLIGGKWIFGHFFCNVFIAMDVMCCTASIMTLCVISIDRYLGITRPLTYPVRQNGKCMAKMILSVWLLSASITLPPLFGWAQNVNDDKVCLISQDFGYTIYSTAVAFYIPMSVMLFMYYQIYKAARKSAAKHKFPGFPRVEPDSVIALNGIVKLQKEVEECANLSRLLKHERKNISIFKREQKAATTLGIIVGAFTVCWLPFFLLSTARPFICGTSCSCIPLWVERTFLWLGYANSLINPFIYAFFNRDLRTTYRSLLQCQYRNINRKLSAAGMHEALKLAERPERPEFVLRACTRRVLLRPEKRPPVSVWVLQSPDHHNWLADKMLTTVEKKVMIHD

Row | Ki (D(2) dopamine receptor) [nM] | Ki [1] [nM] | Ki [2] [nM] | Ki [3] [nM] | inhibition [5] [%] | SMILES | inhibition at 1 µM [4] [%]
1 | 8.7 | 0.9 | 5.1 | 66 |  | O=S(=O)(NCCCN1CCC(c2noc3cc(F)ccc23)CC1)c1cccs1 | 53
2 | 49 | 33 | 8.1 | 61 |  | O=S(=O)(NCCCCN1CCN(c2nsc3ccccc23)CC1)c1ccc2cc(Cl)ccc2c1 | 12
3 | 5.3 | 67 | 2700 | 5200 | 3 | O=S(=O)(NCCCCN1CCN(c2noc3ccccc23)CC1)c1cccs1 | 39
4 | 33 | 8.8 | 3.8 | 35 |  | O=S(=O)(NCCCN1CCC(c2noc3cc(F)ccc23)CC1)c1ccc(OC(F)(F)F)cc1 | 87
5 | 36 | 0.9 | 1.6 | 13 | -2 | O=S(=O)(NCCCN1CCC(c2noc3cc(F)ccc23)CC1)c1csc2ccccc12 | 25
6 | 27 | 6.9 | 12 | 71 | 7 | O=S(=O)(NCCCCN1CCN(c2nsc3ccccc23)CC1)c1ccc(Cl)c(Cl)c1 | 45
7 | 15 | 150 | 410 | 35 | 14 | O=S(=O)(NCCCN1CCN(c2noc3ccccc23)CC1)c1cc2ccccc2s1 | 21
8 |  | 54 | 9.5 | 110 | -6 | O=S(=O)(NCCCN1CCN(c2nsc3ccccc23)CC1)c1cc2ccc(Cl)cc2s1 | 0
9 | 48 | 19 | 2.2 | 47 |  | O=S(=O)(NCCCCN1CCN(c2nsc3ccccc23)CC1)c1ccc(OC(F)(F)F)cc1 | 20
10 | > 1000 | 14 | 9.5 | 100 | 37 | O=S(=O)(NCCCCN1CCC(c2noc3cc(F)ccc23)CC1)c1cnc2ccccn12 | 47
11 | 27 | 34 | 2.6 | 44 | -8 | O=S(=O)(NCCCN1CCC(c2noc3cc(F)ccc23)CC1)c1cc2ccc(Cl)cc2s1 | 20
12 | 6 | 38 | 13 | 100 | -7 | O=S(=O)(NCCCN1CCN(c2nsc3ccccc23)CC1)c1ccc2cc(Cl)ccc2c1 | 7
13 | 63 | 380 | 950 | 2200 | 3 | O=S(=O)(NCCCN1CCN(c2noc3ccccc23)CC1)c1ccc(OC(F)(F)F)cc1 | 10
14 | 44 | 1.1 | 26 | 87 | -3 | Cc1cccc(S(=O)(=O)NCCCCN2CCN(c3noc4ccccc34)CC2)c1 | 27
15 | > 10000 | 41 | 3300 | > 10000 | -2 | O=S(=O)(NCCCN1CCN(c2noc3ccccc23)CC1)c1cccc2scnc12 | 17
16 | 5.2 | 0.4 | 1.8 | 133 | -2 | O=S(=O)(NCCN1CCC(c2noc3cc(F)ccc23)CC1)c1ccc2ccccc2c1 | 21
17 | 15 | 3.2 | 6.5 | 100 | -4 | O=S(=O)(NCCCN1CCC(c2noc3cc(F)ccc23)CC1)c1cnc2ccccn12 | 28
18 | 16 | 3.4 | 7.5 | 120 | 0 | O=S(=O)(NCCCCN1CCN(c2nsc3ccccc23)CC1)c1cccc2scnc12 | 34
19 |  | 94 | 970 | > 10000 | 4 | O=S(=O)(NCCCN1CCN(c2noc3ccccc23)CC1)c1cccs1 | 18
20 | 170 | 57 | 6100 | > 10000 |  | O=S(=O)(NCCCCN1CCN(c2noc3ccccc23)CC1)c1cccc2scnc12 | 26
21 | 20 | 1.1 | 3.5 | 210 | 0 | Cc1cccc(S(=O)(=O)NCCN2CCC(c3noc4cc(F)ccc34)CC2)c1 | 42

Row | Ki (D(2) dopamine receptor) [nM] | Ki [1] [nM] | Ki [2] [nM] | Ki [3] [nM] | inhibition [5] [%] | SMILES | inhibition at 1 µM [4] [%]
22 | 26 | 4.4 | 9 | 48 | 18 | O=S(=O)(NCCCCN1CCC(c2noc3cc(F)ccc23)CC1)c1ccc(F)c(Cl)c1 | 90
23 | 17 | 1.5 | 2.1 | 140 | 11 | Cc1cccc(S(=O)(=O)NCCCCN2CCC(c3noc4cc(F)ccc34)CC2)c1 | 57
24 | 11 | 4.1 | 0.9 | 40 | 13 | O=S(=O)(NCCCN1CCC(c2noc3cc(F)ccc23)CC1)c1cc2ccccc2s1 | 34
25 | 400 | 270 | 210 | 4800 |  | O=S(=O)(NCCCCN1CCN(c2noc3ccccc23)CC1)c1ccc(OC(F)(F)F)cc1 | 24
26 | > 10000 | 200 | 1200 | > 10000 |  | Cc1c(S(=O)(=O)NCCCN2CCN(c3noc4ccccc34)CC2)sc2ccc(F)cc12 | 15
27 | 26 | 6.3 | 12 | 84 | 2 | O=S(=O)(NCCCN1CCN(c2nsc3ccccc23)CC1)c1cnc2ccccn12 | 6
28 | 18 | 1.5 | 0.9 | 680 |  | O=S(=O)(NCCN1CCN(c2nsc3ccccc23)CC1)c1ccc2ccccc2c1 | 0
29 | 43 | 3.8 | 8.8 | 430 |  | Cc1cccc(S(=O)(=O)NCCN2CCN(c3nsc4ccccc34)CC2)c1 | 4
30 | > 10000 | 9.9 | 98 | 330 | 2 | O=S(=O)(NCCCN1CCN(c2noc3ccccc23)CC1)c1ccc(F)c(Cl)c1 | 33
31 | 48 | 13 | 11 | 63 |  | O=S(=O)(NCCCN1CCN(c2nsc3ccccc23)CC1)c1cc2ccccc2s1 | 12
32 | 64 | 15 | 3.6 | 23 | -6 | O=S(=O)(NCCCCN1CCC(c2noc3cc(F)ccc23)CC1)c1ccc(OC(F)(F)F)cc1 | 73
33 | 8.3 | 25 | 14 | 120 | -8 | Cc1c(S(=O)(=O)NCCCN2CCN(c3nsc4ccccc34)CC2)sc2ccc(F)cc12 | 3
34 | 56 | 23 | 9.1 | 140 |  | O=S(=O)(NCCCN1CCN(c2nsc3ccccc23)CC1)c1cccs1 | 33
35 | 25 | 13 | 8.5 | 70 |  | O=S(=O)(NCCCCN1CCC(c2noc3cc(F)ccc23)CC1)c1cccc2scnc12 | 69
36 | 7.8 | 20 | 25 | 15 |  | O=S(=O)(NCCCN1CCN(c2nsc3ccccc23)CC1)c1ccc(Cl)c(Cl)c1 | 21
37 | 13 | 1.7 | 1.3 | 22 |  | Cc1cccc(S(=O)(=O)NCCCN2CCN(c3nsc4ccccc34)CC2)c1 | 14
38 | 27 | 29 | 9.5 | 56 |  | O=S(=O)(NCCCN1CCN(c2nsc3ccccc23)CC1)c1ccc(OC(F)(F)F)cc1 | 50
39 | 57 | 0.7 | 10 | 29 |  | O=S(=O)(NCCCCN1CCN(c2noc3ccccc23)CC1)c1ccc(Cl)c(Cl)c1 | 24
40 | 2000 | 10 | 4200 | 1500 |  | Cc1cccc(S(=O)(=O)NCCCN2CCN(c3noc4ccccc34)CC2)c1 | 8
41 | 51 | 6.7 | 7.7 | 18 |  | O=S(=O)(NCCCCN1CCN(c2noc3ccccc23)CC1)c1ccc2cc(Cl)ccc2c1 | 9
42 | 37 | 9.5 | 14 | 5.1 |  | O=S(=O)(NCCCN1CCN(c2nsc3ccccc23)CC1)c1ccc(F)c(Cl)c1 | 36
